What was measured:
[1] = biological target: T1, Replicase polyprotein 1ab (Severe acute respiratory syndrome coronavirus 2, UniProt P0DTD1); experiment: Inhibition of recombinant SARS-CoV2 6xHis-tag-Main protease containing modified HRV-3C expressed in Escherichia coli using Mca-AVLQSGFR-K(Dnp)K peptide substrate assessed as fluorescent intensity
[2] = Half life in rat; type: ADME; details: in vivo
SARS-CoV-2 [3] = experiment: Anti-viral activity against SARS-CoV-2 infected in K18-hACE2 mouse assessed as reduction in virus in lung at 100 mg/kg, ip twice daily measured after day 3; type: functional; details: Severe acute respiratory syndrome coronavirus 2, 72 h, time 3 day
SARS-CoV-2 [4] = experiment: Antiviral activity against wild type SARS-CoV-2 infected in African green monkey VeroE6/TMPRSS2 cells at 1 MOI assessed as reduction in plaque formation measured after 48 hrs by measuring luciferase activity assay; type: functional, organism-based; details: Severe acute respiratory syndrome coronavirus 2, VeroE6/TMPRSS2, 48 h
[5] = Half life in ICR mouse measured at 150 mg/kg, po upto 24 hrs by LC-MS/MS analysis; type: ADME, organism-based; details: in vivo
SARS-CoV-2 [6] = experiment: Antiviral activity against SARS-CoV-2 B.1.1.7 (Alpha) infected in African green monkey VeroE6/TMPRSS2 cells at 1 MOI assessed as reduction in plaque formation measured after 48 hrs by measuring luciferase activity assay; type: functional, organism-based; details: Severe acute respiratory syndrome coronavirus 2, B.1.1.7 (Alpha), VeroE6/TMPRSS2, 48 h
[7] = AUC in ICR mouse measured at 150 mg/kg, po upto 24 hrs by LC-MS/MS analysis; type: ADME, organism-based; details: in vivo
SARS-CoV-2 [8] = experiment: Antiviral activity against SARS-CoV-2 B.1.617.1 (Kappa) infected in African green monkey VeroE6/TMPRSS2 cells at 1 MOI assessed as reduction in plaque formation measured after 48 hrs by measuring luciferase activity assay; type: functional, organism-based; details: Severe acute respiratory syndrome coronavirus 2, B.1.617.1 (Kappa), VeroE6/TMPRSS2, 48 h
SARS-CoV-2 [9] = experiment: Antiviral activity against SARS-CoV-2 P.3 (Theta) infected in African green monkey VeroE6/TMPRSS2 cells at 1 MOI assessed as reduction in plaque formation measured after 48 hrs by measuring luciferase activity assay; type: functional, organism-based; details: Severe acute respiratory syndrome coronavirus 2, P.3 (Theta), VeroE6/TMPRSS2, 48 h
[10] = Oral bioavailability in ICR mouse measured at 150 mg/kg upto 24 hrs by LC-MS/MS analysis; type: ADME, organism-based; details: in vivo
SARS-CoV-2 [11] = experiment: Antiviral activity against SARS-CoV-2 infected in African green monkey Vero cells; type: functional, organism-based; details: Severe acute respiratory syndrome coronavirus 2, Vero
SARS-CoV-2 [12] = experiment: Antiviral activity against SARS-CoV-2 Canada/Vido 01/2020 infected in African green monkey Vero E6 cells assessed as inhibition of viral replication incubated for 48 hrs by plaque reduction assay; type: functional, organism-based; details: Severe acute respiratory syndrome coronavirus 2, Canada/Vido 01/2020, Vero C1008, 48 h
[13] = biological target: T1, Replicase polyprotein 1ab; experiment: Inhibition of recombinant SARS-CoV-2 3CLp using fluorogenic substrate by microplate reader
[14] = Oral bioavailability in Sprague-Dawley rat at 10 mg/kg; type: ADME, organism-based; details: in vivo
SARS-CoV-2 [15] = experiment: Antiviral activity against SARS-CoV-2 Omicron BA.1 infected in African green monkey Vero E6 cells assessed as inhibition of virus induced cytopathic effect by MTT assay; type: functional, organism-based; details: Severe acute respiratory syndrome coronavirus 2, Omicron BA.1, Vero C1008
[16] = Cmax in cynomolgus monkey at 5 mg/kg, po; type: ADME, organism-based, Macaca fascicularis; details: in vivo
SARS-CoV-2 [17] = experiment: Antiviral activity against SARS-CoV-2 Omicron BA.5 infected in African green monkey Vero E6 cells assessed as inhibition of virus induced cytopathic effect by MTT assay; type: functional, organism-based; details: Severe acute respiratory syndrome coronavirus 2, Omicron BA.5, Vero C1008
SARS-CoV-2 [18] = experiment: Antiviral activity against SARS-CoV-2 Beta infected in African green monkey Vero E6 cells assessed as inhibition of virus induced cytopathic effect by MTT assay; type: functional, organism-based; details: Severe acute respiratory syndrome coronavirus 2, Beta, Vero C1008
SARS-CoV-2 [19] = experiment: Antiviral activity against wild type SARS-CoV-2 infected in African green monkey Vero E6 cells assessed as inhibition of virus induced cytopathic effect by MTT assay; type: functional, organism-based; details: Severe acute respiratory syndrome coronavirus 2, Vero C1008
[20] = Half life in cynomolgus monkey at 5 mg/kg, po; type: ADME, organism-based, Macaca fascicularis; details: in vivo
[21] = Tmax in cynomolgus monkey at 5 mg/kg, po; type: ADME, organism-based, Macaca fascicularis; details: in vivo
[22] = AUC (0 to last) in cynomolgus monkey at 5 mg/kg, po; type: ADME, organism-based, Macaca fascicularis; details: in vivo
SARS-CoV-2 [23] = experiment: Antiviral activity against SARS-CoV-2 Alpha infected in African green monkey Vero E6 cells assessed as inhibition of virus induced cytopathic effect by MTT assay; type: functional, organism-based; details: Severe acute respiratory syndrome coronavirus 2, Alpha, Vero C1008
SARS-CoV-2 [24] = experiment: Antiviral activity against SARS-CoV-2 Delta infected in African green monkey Vero E6 cells assessed as inhibition of virus induced cytopathic effect by MTT assay; type: functional, organism-based; details: Severe acute respiratory syndrome coronavirus 2, Delta, Vero C1008
[25] = biological target: T1, Replicase polyprotein 1ab; experiment: Inhibition of SARS-CoV-2 recombinant 3CLpro using fluorogenic substrate (Dabcyl-KTSAVLQ]SGFRK M-E
SARS-CoV-2 [26] = experiment: Antiviral activity against SARS-CoV-2 infected in Caco-2-ACE2 assessed as inhibition of viral replication; type: functional, organism-based; details: Severe acute respiratory syndrome coronavirus 2, Caco-2-ACE2
SARS-CoV-2 [27] = experiment: Antiviral activity against SARS-CoV-2 infected in African green monkey Vero E6 cells at 0.1 MOI assessed as inhibition of virus induced cytopathic effect by CCK8 assay; type: functional, organism-based; details: Severe acute respiratory syndrome coronavirus 2, Vero C1008
[28] = biological target: T1, Replicase polyprotein 1ab; experiment: Inhibition of SARS-CoV-2 3CLp using fluorescent substrate by FRET assay
[29] = biological target: Protein cereblon/Replicase polyprotein 1ab (Severe acute respiratory syndrome coronavirus 2, UniProt P0DTD1+Q96SW2); experiment: PROTAC activity at SARS-CoV-2 Main protease/CRBN (unknown origin) in SARS-CoV-2 infected african green monkey Vero cell assessed as inhibition of virus-mediated cytopathic effect measured after 72 hrs; type: cell-based
Sequence of Protein cereblon/Replicase polyprotein 1ab (Q96SW2 whole entry, other chains not shown): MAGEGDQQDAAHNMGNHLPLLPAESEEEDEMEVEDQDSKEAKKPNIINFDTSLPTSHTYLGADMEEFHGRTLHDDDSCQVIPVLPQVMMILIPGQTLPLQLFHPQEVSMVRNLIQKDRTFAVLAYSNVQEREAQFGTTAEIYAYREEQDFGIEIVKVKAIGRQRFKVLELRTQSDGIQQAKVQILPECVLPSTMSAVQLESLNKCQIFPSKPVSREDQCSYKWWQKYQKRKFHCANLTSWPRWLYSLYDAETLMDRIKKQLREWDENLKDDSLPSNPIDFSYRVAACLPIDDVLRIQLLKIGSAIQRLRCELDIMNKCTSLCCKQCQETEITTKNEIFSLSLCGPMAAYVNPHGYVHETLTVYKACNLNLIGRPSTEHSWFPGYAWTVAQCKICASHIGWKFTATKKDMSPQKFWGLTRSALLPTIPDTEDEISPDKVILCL

SARS-CoV-2 [30] = experiment: Antiviral activity against wild type SARS-CoV-2 infected in human Calu-3 cells; type: functional, organism-based; details: Severe acute respiratory syndrome coronavirus 2, Calu-3

## COC(=O)Cn1sc2ccccc2c1=O
[1]
  IC50: 2830 nM

## O=C[C@H](C[C@@H]1CCNC1=O)NC(=O)[C@H](CC1CCCCC1)NC(=O)c1cc2ccccc2[nH]1
[2]
  half-life: > 240 min
SARS-CoV-2 [3]
  inhibition in vivo at 100 mg/kg: 100%

## [2H][C@](C(=O)N[C@@H](C)c1ccc(F)cc1)(c1cccnc1)N(C(=O)C(C)=O)c1ccc2c(c1)oc1ccccc12
SARS-CoV-2 [4]
  EC50: 11.4 nM
[5]
  half-life: 85.2 min
SARS-CoV-2 [6]
  EC50: 20.3 nM
[7]
  AUC at 24 h: 29200 ng·h/mL
SARS-CoV-2 [8]
  EC50: 34.4 nM
SARS-CoV-2 [9]
  EC50: 23.7 nM
[10]
  bioavailability: 92.9%

## C[C@H](NC(=O)[C@@H](c1cccnc1)N(C(=O)C(Cl)Cl)c1ccc(-c2ccccc2)cc1)c1ccccc1
SARS-CoV-2 [11]
  EC50: 900 nM

## COc1cccc2[nH]c(C(=O)N[C@@H](CC(C)C)C(=O)N[C@H](C#N)C[C@@H]3CCNC3=O)cc12
SARS-CoV-2 [12]
  EC50: > 5 µM

## O=C[C@H](C[C@@H]1CCNC1=O)NC(=O)[C@@H]1[C@H]2CCC[C@H]2CN1C(=O)COc1ccc(Cl)c(Cl)c1
[13]
  IC50: 19 nM
[14]
  bioavailability: 5.1%

## O=C[C@H](C[C@@H]1CCNC1=O)NC(=O)[C@@H]1[C@H]2CCC[C@H]2CN1C(=O)COc1ccc(Cl)cc1
[13]
  IC50: 9 nM
[14]
  bioavailability: 7.2%

## CC1(C)[C@@H]2[C@@H](C(=O)N[C@H](C=O)C[C@@H]3CCNC3=O)N(C(=O)COc3ccc(Cl)cc3)C[C@@H]21
[13]
  IC50: 9 nM
[14]
  bioavailability: 4.8%

## CC1(C)[C@@H]2[C@@H](C(=O)N[C@H](C=O)C[C@@H]3CCNC3=O)N(C(=O)COc3ccc(Cl)cc3Cl)C[C@@H]21
[13]
  IC50: 10 nM
[14]
  bioavailability: 4.1%

## C[C@H](NC(=O)[C@@H](c1cccnc1)N(C(=O)C(Br)(Br)Br)c1ccc(-c2ccccc2)cc1)c1ccccc1
SARS-CoV-2 [11]
  EC50: 580 nM

## O=C(NC1CCCC1)C(=O)[C@H](C[C@@H]1CCNC1=O)NC(=O)[C@@H]1[C@H]2CCC[C@H]2CN1C(=O)[C@@H](NC(=O)C(F)(F)F)C1CCCCC1
SARS-CoV-2 [15]
  EC50: 86 nM
[16]
  Cmax: 102 nM
SARS-CoV-2 [17]
  EC50: 130 nM
SARS-CoV-2 [18]
  EC50: 277 nM
SARS-CoV-2 [19]
  EC50: 95 nM
[20]
  half-life: 894 min
[21]
  Tmax: 1.5 h
[22]
  AUC(0-t): 0.458 µM·h
SARS-CoV-2 [23]
  EC50: 130 nM
SARS-CoV-2 [24]
  EC50: 97 nM

## CNC(=O)c1cc(Br)cc([N+](=O)[O-])c1N[C@H]1CCCC[C@H]1NC(=O)c1cncc2cc(O)ccc12
[25]
  IC50: 120 µM

## O=C[C@@H](C[C@H]1CCNC1=O)NC(=O)[C@H]1[C@@H]2CCC[C@@H]2CN1C(=O)OCc1ccccc1
SARS-CoV-2 [26]
  EC50: 5.24 µM
SARS-CoV-2 [27]
  EC50: 2560 nM
[28]
  IC50: 51 nM

## Cc1c(COC(=O)N[C@@H](CC(C)C)C(=O)N[C@@H](C[C@@H]2CCNC2=O)C(O)S(=O)(=O)O)nnn1CCOCCOCCOCCC(=O)Nc1cccc2c1C(=O)N(C1CCC(=O)NC1=O)C2=O (some centres not stated)
[29]
  EC50: 2150 nM

## COc1ccc(/C=C(\C#N)C(=O)N(c2ccc(-c3ccccc3)cc2)[C@@H](C(=O)N[C@@H](C)c2ccccc2)c2cccnc2)cc1
SARS-CoV-2 [30]
  EC50: 6.47 µM

— ChEMBL document CHEMBL5512603, “Development of de-novo coronavirus 3-chymotrypsin-like protease (3CLpro) inhibitors since COVID-19 outbreak: A strategy to tackle challenges of persistent virus infection” (Eur J Med Chem, 2024)
